Measurements as given in US20250230147A1, “LACTAMS AS CBL-B INHIBITORS” (Genentech, Inc., priority 2021, published 2025).
Counter-ions that a name gives are not always drawn.

Experiments:
[1] = target: Cbl-b (Homo sapiens (Human), UniProt Q13191); test: Cbl-b LCK Ub TR-FRET assay (Cbl-b Lck HTRF); assay type: biochemical
Method in brief: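 Biotin-Cbl-b preincubated with compound (10-point 3-fold series) 60 min, then His-LCK with 1 mM ATP (2× mixture) added for 90 min at room temperature. Ubiquitination detected by TR-FRET using HA-ubiquitin/UBE2D2 adduct, anti-HA-D2 and streptavidin-Eu; IC50 normalised to no-LCK and DMSO controls.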

[2] = target: c-Cbl (Homo sapiens (Human), UniProt P22681); test: C-Cbl LCK Ub TR-FRET assay (c-cbl Lck HTRF); assay type: biochemical; conditions: for (fold-selectivity): C-cbl Lck HTRF IC50 relative to Cbl-b Lck HTRF IC50
Sequence of c-Cbl (P22681 47-435): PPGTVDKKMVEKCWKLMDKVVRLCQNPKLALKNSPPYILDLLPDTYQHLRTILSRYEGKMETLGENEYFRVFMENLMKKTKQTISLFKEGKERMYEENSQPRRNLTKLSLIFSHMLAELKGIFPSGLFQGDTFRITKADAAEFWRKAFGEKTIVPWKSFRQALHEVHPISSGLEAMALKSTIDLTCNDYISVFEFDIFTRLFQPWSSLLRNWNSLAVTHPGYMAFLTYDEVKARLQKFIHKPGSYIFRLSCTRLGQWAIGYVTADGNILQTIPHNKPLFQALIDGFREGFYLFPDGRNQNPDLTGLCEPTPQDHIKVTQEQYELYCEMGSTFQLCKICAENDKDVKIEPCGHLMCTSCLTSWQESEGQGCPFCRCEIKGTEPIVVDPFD
Method in brief: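 Detection reagents added, brief spin, 20 min RT. IC50 fit normalized to no-LCK (low) and DMSO (high) controls.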

Sequence of Cbl-b (Q13191 40-426): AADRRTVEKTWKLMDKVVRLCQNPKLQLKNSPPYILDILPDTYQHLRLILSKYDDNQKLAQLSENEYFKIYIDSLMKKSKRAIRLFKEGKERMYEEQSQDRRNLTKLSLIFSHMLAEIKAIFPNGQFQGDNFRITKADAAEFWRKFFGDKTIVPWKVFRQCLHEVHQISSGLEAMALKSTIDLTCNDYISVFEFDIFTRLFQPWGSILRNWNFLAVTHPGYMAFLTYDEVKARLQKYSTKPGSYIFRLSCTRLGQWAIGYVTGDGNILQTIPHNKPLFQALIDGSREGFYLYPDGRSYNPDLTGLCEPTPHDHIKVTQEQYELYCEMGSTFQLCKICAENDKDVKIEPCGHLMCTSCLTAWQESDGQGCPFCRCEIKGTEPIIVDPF

| Structure (SMILES) | IC50 [1] [nM] | IC50 [2] [nM] | (fold-selectivity) [2] |
| --- | --- | --- | --- |
| C=CC(=O)Nc1cc(C2(Cc3nncn3C)CCC2)cc(N2Cc3c(cc(CN4CCN(C)C[C@@H]4C(C)C)cc3C(F)(F)F)C2=O)n1 [Compound 239, (S)—N-(6-(6-((2-isopropyl-4-methylpiperazin-1-yl)methyl)-1-oxo-4-(trifluoromethyl)isoindolin-2-yl)-4-(1-((4-methyl-4H-1,2,4-triazol-3-yl)methyl)cyclobutyl)-pyridin-2-yl)acrylamide] | 35 | 48 | (1.4x) |
| CC(C)[C@H]1CN(C)CCN1Cc1cc2c(c(C(F)(F)F)c1)CN(c1cccc(C3(Cc4nncn4C)CC(F)(F)C3)c1)C2=O [Compound 240, (S)-2-(3-(3,3-difluoro-1-((4-methyl-4H-1,2,4-triazol-3-yl)methyl)-cyclobutyl)phenyl)-6-((2-isopropyl-4-methylpiperazin-1-yl)methyl)-4-(trifluoromethyl)iso-indolin-1-one] | 54 | 39 | (0.71x) |
| Cn1cnnc1CC1(c2cc(Cc3ccccc3)nc(N3Cc4c(cc(CNC5(C)CCC5)cc4C(F)(F)F)C3=O)c2)CCC1 [Compound 241, 2-(6-benzyl-4-(1-((4-methyl-4H-1,2,4-triazol-3-yl)methyl)cyclo-butyl)pyridin-2-yl)-6-(((1-methylcyclobutyl)amino)methyl)-4-(trifluoromethyl)isoindolin-1-one] | 21 | 16 | (0.77x) |
| Cn1cnnc1CC1(c2cccc(N3Cc4c(cc(CNC5(C)CCC5)cc4C(F)(F)F)C3=O)c2)CS(=O)(=O)C1 [Compound 242, 2-(3-(3-((4-methyl-4H-1,2,4-triazol-3-yl)methyl)-1,1-dioxido-thietan-3-yl)phenyl)-6-(((1-methylcyclobutyl)amino)methyl)-4-(trifluoromethyl)isoindolin-1-one] | 31 | 41 | (1.3x) |
| Cc1cnnn1CC1(c2cccc(N3Cc4c(cc(CNC5(C)CCC5)cc4C(F)(F)F)C3=O)c2)COC1 [Compound 243, 2-(3-(3-((5-methyl-1H-1,2,3-triazol-1-yl)methyl)oxetan-3-yl)-phenyl)-6-(((1-methylcyclobutyl)amino)methyl)-4-(trifluoromethyl)isoindolin-1-one] | 29 | 47 | (1.6x) |
| Cn1cnnc1CC1(c2cccc(N3Cc4c(cc(CNC5(C)CCC5)c(F)c4C(F)(F)F)C3=O)c2)CC(F)(F)C1 [Compound 244, 2-(3-(3,3-difluoro-1-((4-methyl-4H-1,2,4-triazol-3-yl)methyl)cyclo-butyl)phenyl)-5-fluoro-6-(((1-methylcyclobutyl)amino)methyl)-4-(trifluoromethyl)isoindolin-1-one] | 15 | 14 | (0.97x) |
| C[C@@H](NC1(C)CCC1)c1cc2c(c(C(F)(F)F)c1)CN(c1cccc(C3(Cc4nncn4C)CC(F)(F)C3)c1)C2=O [Compound 245, (R)-2-(3-(3,3-difluoro-1-((4-methyl-4H-1,2,4-triazol-3-yl)-methyl)cyclobutyl)phenyl)-6-(1-((1-methylcyclobutyl)amino)ethyl)-4-(trifluoromethyl)-isoindolin-1-one] | 13 | 13 | (1.0x) |
| C[C@H](NC1(C)CCC1)c1cc2c(c(C(F)(F)F)c1)CN(c1cccc(C3(Cc4nncn4C)CC(F)(F)C3)c1)C2=O [Compound 246, (S)-2-(3-(3,3-difluoro-1-((4-methyl-4H-1,2,4-triazol-3-yl)methyl)-cyclobutyl)phenyl)-6-(1-((1-methylcyclobutyl)amino)ethyl)-4-(trifluoromethyl)isoindolin-1-one] | 5.8 | 4.4 | (0.76x) |
| Cn1cnnc1[C@H](F)C1(c2cccc(N3Cc4c(cc(CNC5(C)CCC5)cc4C(F)F)C3=O)c2)COC1 [Compound 249, (R)-4-(difluoromethyl)-2-(3-(3-(fluoro(4-methyl-4H-1,2,4-triazol-3-yl)methyl)oxetan-3-yl)phenyl)-6-(((1-methylcyclobutyl)amino)methyl)isoindolin-1-one formate] | 12 | 20 |  |
| Cn1cnnc1CC1(c2cccc(N3Cc4c(Cl)cc(CNC5(C)CCC5)cc4C3=O)c2)CC(F)(F)C1 [Compound 252, 4-chloro-2-(3-(3,3-difluoro-1-((4-methyl-4H-1,2,4-triazol-3-yl)-methyl)cyclobutyl)phenyl)-6-(((1-methylcyclobutyl)amino)methyl)isoindolin-1-one formate] | 13 | 11 |  |

More lines, now with the values ahead:

| IC50 [1] [nM] | IC50 [2] [nM] | (fold-selectivity) [2] | Structure (SMILES) |
| --- | --- | --- | --- |
| 7.6 | 11 | (1.4x) | C[C@@H](NC1(C)CCC1)c1cc2c(c(C(F)(F)F)c1)CN(c1cccc(C3([C@@H](F)c4nncn4C)COC3)c1)C2=O [Compound 247, 2-(3-(3-((R)-fluoro(4-methyl-4H-1,2,4-triazol-3-yl)methyl)oxetan-3-yl)phenyl)-6-((R)-1-((1-methylcyclobutyl)amino)ethyl)-4-(trifluoromethyl)isoindolin-1-one] |
| 6.7 | 5.2 | (0.79x) | C[C@H](NC1(C)CCC1)c1cc2c(c(C(F)(F)F)c1)CN(c1cccc(C3([C@@H](F)c4nncn4C)COC3)c1)C2=O [Compound 248, 2-(3-(3-((R)-fluoro(4-methyl-4H-1,2,4-triazol-3-yl)methyl)oxetan-3-yl)phenyl)-6-((S)-1-((1-methylcyclobutyl)amino)ethyl)-4-(trifluoromethyl)isoindolin-1-one] |
| 12 | 9.3 | (0.77x) | Cn1cnnc1CC1(c2cccc(N3Cc4c(cc(CNC5(C)CCC5)cc4C(F)F)C3=O)c2)CC(F)(F)C1 [Compound 250, 2-(3-(3,3-difluoro-1-((4-methyl-4H-1,2,4-triazol-3-yl)methyl)cyclo-butyl)phenyl)-4-(difluoromethyl)-6-(((1-methylcyclobutyl)amino)methyl)isoindolin-1-one] |
| 11 | 8.4 | (0.76x) | CSc1cc(C2(Cc3nncn3C)CCC2)cc(N2Cc3c(cc(CNC4(C)CCC4)cc3C(F)(F)F)C2=O)n1 [Compound 251, 2-(4-(1-((4-methyl-4H-1,2,4-triazol-3-yl)methyl)cyclobutyl)-6-(methylthio)pyridin-2-yl)-6-(((1-methylcyclobutyl)amino)methyl)-4-(trifluoromethyl)isoindolin-1-one] |
| 1400 | 3400 | (2.6x) | Cn1cnnc1C(F)(F)C1(c2cccc(N3Cc4c(cccc4C(F)(F)F)C3=O)c2)CC(F)(F)C1 [Compound 253, 2-(3-(1-(difluoro(4-methyl-4H-1,2,4-triazol-3-yl)methyl)-3,3-difluorocyclobutyl)phenyl)-4-(trifluoromethyl)isoindolin-1-one] |
| 2400 | 3200 | (1.4x) | Cc1ncnn1CC1(c2cccc(N3Cc4c(cc(CN5CCN(C)C[C@@H]5C(C)C)cc4C(F)(F)F)C3=O)c2)COC1 [Compound 254, (S)-6-((2-isopropyl-4-methylpiperazin-1-yl)methyl)-2-(3-(3-((5-methyl-1H-1,2,4-triazol-1-yl)methyl)oxetan-3-yl)phenyl)-4-(trifluoromethyl)isoindolin-1-one] |
| 20000 | ≥ 20000 | (1.0x) | Cc1ncn(CC2(c3cccc(N4Cc5c(cc(CN6CCN(C)C[C@@H]6C(C)C)cc5C(F)(F)F)C4=O)c3)COC2)n1 [Compound 255, (S)-6-((2-isopropyl-4-methylpiperazin-1-yl)methyl)-2-(3-(3-((3-methyl-1H-1,2,4-triazol-1-yl)methyl)oxetan-3-yl)phenyl)-4-(trifluoromethyl)isoindolin-1-one] |
| 15 | 13 | (0.83x) | Cc1cnn(CC2(c3cccc(N4Cc5c(cc(CN6CCN(C)C[C@@H]6C(C)C)cc5C(F)(F)F)C4=O)c3)COC2)n1 [Compound 256, (S)-6-((2-isopropyl-4-methylpiperazin-1-yl)methyl)-2-(3-(3-((4-methyl-2H-1,2,3-triazol-2-yl)methyl)oxetan-3-yl)phenyl)-4-(trifluoromethyl)isoindolin-1-one] |
| 13000 | 20000 | (1.6x) | Cc1cn(CC2(c3cccc(N4Cc5c(cc(CN6CCN(C)C[C@@H]6C(C)C)cc5C(F)(F)F)C4=O)c3)COC2)nn1 [Compound 257, (S)-6-((2-isopropyl-4-methylpiperazin-1-yl)methyl)-2-(3-(3-((4-methyl-1H-1,2,3-triazol-1-yl)methyl)oxetan-3-yl)phenyl)-4-(trifluoromethyl)isoindolin-1-one] |
| 22 | 31 | (1.4x) | Cc1cnnn1CC1(c2cccc(N3Cc4c(cc(CN5CCN(C)C[C@@H]5C(C)C)cc4C(F)(F)F)C3=O)c2)COC1 [Compound 258, (S)-6-((2-isopropyl-4-methylpiperazin-1-yl)methyl)-2-(3-(3-((5-methyl-1H-1,2,3-triazol-1-yl)methyl)oxetan-3-yl)phenyl)-4-(trifluoromethyl)isoindolin-1-one] |
| 3100 | 3100 | (1.0x) | CC(C)[C@H]1CN(C)CCN1Cc1cc2c(c(C(F)(F)F)c1)CN(c1cccc(C3([C@@H](F)c4nncn4-c4ccccc4)COC3)c1)C2=O [Compound 259, 2-(3-(3-((R)-fluoro(4-phenyl-4H-1,2,4-triazol-3-yl)methyl)oxetan-3-yl)phenyl)-6-(((S)-2-isopropyl-4-methylpiperazin-1-yl)methyl)-4-(trifluoromethyl)isoindolin-1-one] |
